From the Kinase Knowledgebase extract (Sharma et al. 2016)

Assays:
[1] = target: MAPK14 (human) (UniProt Q16539); experiment: Enzyme Assay; settings: A375; concentration not given here
[2] = target: MAPK14 (human) (UniProt Q16539); experiment: Enzyme Assay; settings: A375; concentration not given here; remark: listed apart in the source

MAPK14 (human), sequence (Q16539 whole entry, looked up): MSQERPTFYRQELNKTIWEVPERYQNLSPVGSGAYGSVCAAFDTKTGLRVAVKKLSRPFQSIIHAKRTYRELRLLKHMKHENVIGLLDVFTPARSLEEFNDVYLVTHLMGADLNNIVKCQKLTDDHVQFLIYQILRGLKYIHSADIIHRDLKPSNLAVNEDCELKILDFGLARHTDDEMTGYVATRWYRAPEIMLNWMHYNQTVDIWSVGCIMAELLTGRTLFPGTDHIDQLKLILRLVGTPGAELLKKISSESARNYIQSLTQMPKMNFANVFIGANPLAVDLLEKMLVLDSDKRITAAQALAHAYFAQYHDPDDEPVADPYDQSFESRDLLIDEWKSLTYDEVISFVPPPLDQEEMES

Row | activity [1] [%] | activity [2] [%] | SMILES
1 | 6.32 | 18.9 | N#CC(=C(/N)Sc1ccccc1N)/C(C#N)=C(\N)Sc1ccccc1N
2 | 25.3 | 34.7 | COc1cccc(-c2cc(=O)c3ccccc3o2)c1N
